Test results reported in US6525001B1, “Substituted pyrimidine and pyridine herbicides” (Mid-American Commercialization Corporation, priority 1997, dated 2003).

Key:
Assay type in all cases: in vivo
[1] = system: duck salad (Heteranthera limosa); assay: Test B flood test
In short: (§1)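 Each value is a visual injury score relative to controls, with 10 meaning complete control and 0 no effect. Evaluation took place twelve to sixteen days after the 2-leaf-stage plants were treated and kept in the greenhouse.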

[2] = system: bamyardgrass (Echinochloa crus-galli); assay: Test B flood test
In short: as §1

rice (Oryza sativa) = assay: Test B flood test
In short: as §1

[3] = system: smallflower flatsedge (Cyperus difformis); assay: Test B flood test
In short: as §1

[4] = system: bedstraw (Galium aparine); assay: Test B pre-/postemergence; parameters: key: 0 is no effect; 10 is complete control; details: for Bedstraw plant response rating: Preemergence
In short: (§2)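 Response scores run from 0, meaning no effect, to 10, meaning complete control, assigned by eye relative to controls twelve to sixteen days after spraying. Treatment was both preemergence on planted seed and postemergence on plants at the 1- to 4-leaf stage.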

[5] = system: velvetleaf (Abutilon theophrasti); assay: Test B pre-/postemergence; parameters: key: 0 is no effect; 10 is complete control
In short: as §2

[6] = system: blackgrass (Alopecurus myosuroides); assay: Test B pre-/postemergence; parameters: key: 0 is no effect; 10 is complete control; details: for Blackgrass plant response rating: Preemergence
In short: as §2

[7] = system: sugar beet (Beta vulgaris); assay: Test B pre-/postemergence; parameters: key: 0 is no effect; 10 is complete control
In short: as §2

[8] = system: wheat (Triticum aestivum); assay: Test B pre-/postemergence; parameters: key: 0 is no effect; 10 is complete control
In short: as §2

corn (Zea mays) = assay: Test B pre-/postemergence; parameters: key: 0 is no effect; 10 is complete control; details: for Corn plant response rating: Preemergence
In short: as §2

wild oat (Avena fatua) = assay: Test B pre-/postemergence; parameters: key: 0 is no effect; 10 is complete control
In short: as §2

[9] = system: pigweed (Amaranthus retroflexus); assay: Test B pre-/postemergence; parameters: key: 0 is no effect; 10 is complete control
In short: as §2

rape (Brassica napus) = assay: Test B pre-/postemergence; parameters: key: 0 is no effect; 10 is complete control
In short: as §2

[10] = system: crabgrass (Digitaria sanguinalis); assay: Test B pre-/postemergence; parameters: key: 0 is no effect; 10 is complete control; details: for Crabgrass plant response rating: Preemergence
In short: as §2

[11] = system: broadleaf signalgrass (Brachiaria decumbens); assay: Test B pre-/postemergence; parameters: key: 0 is no effect; 10 is complete control; details: for B. signalgrass plant response rating: Preemergence
In short: as §2

soybean (Glycine max) = assay: Test B pre-/postemergence; parameters: key: 0 is no effect; 10 is complete control
In short: as §2

[12] = system: cocklebur (Xanthium strumarium); assay: Test B pre-/postemergence; parameters: key: 0 is no effect; 10 is complete control; details: for Cocklebur plant response rating: Preemergence
In short: as §2

[13] = system: giant foxtail (Setaria faberii); assay: Test B pre-/postemergence; parameters: key: 0 is no effect; 10 is complete control
In short: as §2

[14] = system: momingglory (Ipomoea hederacea); assay: Test B pre-/postemergence; parameters: key: 0 is no effect; 10 is complete control
In short: as §2

[15] = system: purple nutsedge (Cyperus rotundus); assay: Test B pre-/postemergence; parameters: key: 0 is no effect; 10 is complete control
In short: as §2

[16] = Rate 62 g/ha, Postemergence (flood test)
[17] = Rate 125 g/ha, Postemergence, flood test
[18] = Rate 250 g/ha, Postemergence (flood test species)
[19] = Rate 125 g/ha, Postemergence section (flood test species)
[20] = Rate 250 g/ha, Postemergence (so in the source)

## Cc1cnc(-c2ccc(Cl)cc2F)nc1Cc1cccc(C(F)(F)F)c1 [Compound 29]
[1]; [16]
  Plant response rating, Ducksalad: 1
[1]; [17]
  Plant response rating, Ducksalad: 3
[1]; [18]
  Plant response rating, Ducksalad: 4
[2]; [16]
  Plant response rating, Barnyardgrass: 2
[2]; [17]
  Plant response rating, Barnyardgrass: 3
[2]; [18]
  Plant response rating, Barnyardgrass: 4
Rice (Oryza sativa); [16]
  Plant response rating, Rice: 1
Rice (Oryza sativa); [19]
  Rice plant response rating: 2
Rice (Oryza sativa); [18]
  Plant response rating, Rice: 3
[3]; [16]
  Plant response rating, S. Flatsedge: 1
[3]; [19]
  S. Flatsedge plant response rating: 6
[3]; [18]
  Plant response rating, S. Flatsedge: 8
[4]; Rate 62 g/ha, Postemergence
  Plant response rating, Bedstraw: 2
[4]; Rate 62 g/ha
  Bedstraw plant response rating: 0
[4]; Rate 125 g/ha, Postemergence
  Plant response rating, Bedstraw: 9
[4]; Rate 125 g/ha
  Bedstraw plant response rating: 1
[4]; Rate 250 g/ha, Postemergence
  Plant response rating, Bedstraw: 9
[4]; [20]
  Plant response rating, Bedstraw: 3
[5]; Rate 62 g/ha, Postemergence
  Plant response rating, Velvetleaf: 3
[5]; Rate 62 g/ha, Preemergence
  Velvetleaf plant response rating: 0
[5]; Rate 125 g/ha, Postemergence
  Velvetleaf plant response rating: 3
[5]; Rate 125 g/ha, Preemergence
  Plant response rating, Velvetleaf: 0
[5]; Rate 250 g/ha, Postemergence
  Plant response rating, Velvetleaf: 4
[5]; [20]
  Plant response rating, Velvetleaf: 0
[6]; Rate 62 g/ha, Postemergence
  Plant response rating, Blackgrass: 2
[6]; Rate 62 g/ha
  Blackgrass plant response rating: 1
[6]; Rate 125 g/ha, Postemergence
  Plant response rating, Blackgrass: 3
[6]; Rate 125 g/ha
  Blackgrass plant response rating: 1
[6]; Rate 250 g/ha, Postemergence
  Plant response rating, Blackgrass: 5
[6]; [20]
  Plant response rating, Blackgrass: 3
[7]; Rate 62 g/ha, Postemergence
  Plant response rating, Sugarbeets: 9
[7]; Rate 62 g/ha, Preemergence
  Sugarbeets plant response rating: 0
[7]; Rate 125 g/ha, Postemergence
  Sugarbeets plant response rating: 9
[7]; Rate 125 g/ha, Preemergence
  Plant response rating, Sugarbeets: 3
[7]; Rate 250 g/ha, Postemergence
  Plant response rating, Sugarbeets: 10
[7]; [20]
  Plant response rating, Sugarbeets: 4
[8]; Rate 62 g/ha, Postemergence
  Wheat plant response rating: 2
[8]; Rate 62 g/ha, Preemergence
  Wheat plant response rating: 0
[8]; Rate 125 g/ha, Postemergence
  Wheat plant response rating: 3
[8]; Rate 125 g/ha, Preemergence
  Plant response rating, Wheat: 0
[8]; Rate 250 g/ha, Postemergence
  Plant response rating, Wheat: 4
[8]; [20]
  Plant response rating, Wheat: 0
Corn (Zea mays); Rate 62 g/ha, Postemergence
  Plant response rating, Corn: 2
Corn (Zea mays); Rate 62 g/ha
  Corn plant response rating: 0
Corn (Zea mays); Rate 125 g/ha, Postemergence
  Plant response rating, Corn: 2
Corn (Zea mays); Rate 125 g/ha
  Corn plant response rating: 0
Corn (Zea mays); Rate 250 g/ha, Postemergence
  Plant response rating, Corn: 3
Corn (Zea mays); [20]
  Plant response rating, Corn: 0
Wild oat (Avena fatua); Rate 62 g/ha, Postemergence
  Wild oats plant response rating: 1
Wild oat (Avena fatua); Rate 62 g/ha, Preemergence
  Wild oats plant response rating: 0
Wild oat (Avena fatua); Rate 125 g/ha, Postemergence
  Wild oats plant response rating: 2
Wild oat (Avena fatua); Rate 125 g/ha, Preemergence
  Plant response rating, Wild oats: 0
Wild oat (Avena fatua); Rate 250 g/ha, Postemergence
  Plant response rating, Wild oats: 4
Wild oat (Avena fatua); [20]
  Plant response rating, Wild oats: 1
[9]; Rate 62 g/ha, Postemergence
  Plant response rating, Redroot pigweed: 8
[9]; Rate 62 g/ha, Preemergence
  Redroot pigweed plant response rating: 0
[9]; Rate 125 g/ha, Postemergence
  Redroot pigweed plant response rating: 10
[9]; Rate 125 g/ha, Preemergence
  Redroot pigweed plant response rating: 3
[9]; Rate 250 g/ha, Postemergence
  Plant response rating, Redroot pigweed: 10
[9]; [20]
  Plant response rating, Redroot pigweed: 3
Rape (Brassica napus); Rate 62 g/ha, Postemergence
  Plant response rating, Rape: 8
Rape (Brassica napus); Rate 62 g/ha, Preemergence
  Rape plant response rating: 1
Rape (Brassica napus); Rate 125 g/ha, Postemergence
  Rape plant response rating: 9
Rape (Brassica napus); Rate 125 g/ha, Preemergence
  Rape plant response rating: 1
Rape (Brassica napus); Rate 250 g/ha, Postemergence
  Plant response rating, Rape: 9
Rape (Brassica napus); [20]
  Plant response rating, Rape: 1
[10]; Rate 62 g/ha, Postemergence
  Plant response rating, Crabgrass: 4
[10]; Rate 62 g/ha
  Crabgrass plant response rating: 2
[10]; Rate 125 g/ha, Postemergence
  Plant response rating, Crabgrass: 6
[10]; Rate 125 g/ha
  Crabgrass plant response rating: 4
[10]; Rate 250 g/ha, Postemergence
  Plant response rating, Crabgrass: 9
[10]; [20]
  Plant response rating, Crabgrass: 7
[11]; Rate 62 g/ha, Postemergence
  Plant response rating, B. signalgrass: 3
[11]; Rate 62 g/ha
  B. signalgrass plant response rating: 1
[11]; Rate 125 g/ha, Postemergence
  Plant response rating, B. signalgrass: 3
[11]; Rate 125 g/ha
  B. signalgrass plant response rating: 3
[11]; Rate 250 g/ha, Postemergence
  Plant response rating, B. signalgrass: 5
[11]; Rate 250 g/ha, Postemergence as printed in head r139 (second section for compounds 26-50)
  Plant response rating, B. signalgrass: 4
Soybean (Glycine max); Rate 62 g/ha, Postemergence
  Plant response rating, Soybean: 3
Soybean (Glycine max); Rate 62 g/ha, Preemergence
  Soybean plant response rating: 0
Soybean (Glycine max); Rate 125 g/ha, Postemergence
  Soybean plant response rating: 4
Soybean (Glycine max); Rate 125 g/ha, Preemergence
  Plant response rating, Soybean: 0
Soybean (Glycine max); Rate 250 g/ha, Postemergence
  Plant response rating, Soybean: 7
Soybean (Glycine max); [20]
  Plant response rating, Soybean: 0
[12]; Rate 62 g/ha, Postemergence
  Plant response rating, Cocklebur: 6
[12]; Rate 62 g/ha
  Cocklebur plant response rating: 0
[12]; Rate 125 g/ha, Postemergence
  Plant response rating, Cocklebur: 6
[12]; Rate 125 g/ha
  Cocklebur plant response rating: 0
[12]; Rate 250 g/ha, Postemergence
  Plant response rating, Cocklebur: 8
[12]; [20]
  Plant response rating, Cocklebur: 0
[13]; Rate 62 g/ha, Postemergence
  Plant response rating, Giant foxtail: 3
[13]; Rate 62 g/ha, Preemergence
  Giant foxtail plant response rating: 1
[13]; Rate 125 g/ha, Postemergence
  Giant foxtail plant response rating: 4
[13]; Rate 125 g/ha, Preemergence
  Giant foxtail plant response rating: 4
[13]; Rate 250 g/ha, Postemergence
  Plant response rating, Giant foxtail: 4
[13]; [20]
  Plant response rating, Giant foxtail: 9
[14]; Rate 62 g/ha, Postemergence
  Plant response rating, Morningglory: 8
[14]; Rate 62 g/ha, Preemergence
  Morningglory plant response rating: 0
[14]; Rate 125 g/ha, Postemergence
  Morningglory plant response rating: 10
[14]; Rate 125 g/ha, Preemergence
  Morningglory plant response rating: 2
[14]; Rate 250 g/ha, Postemergence
  Plant response rating, Morningglory: 10
[14]; [20]
  Plant response rating, Morningglory: 3
[15]; Rate 62 g/ha, Postemergence
  Plant response rating, Nutsedge: 0
[15]; Rate 62 g/ha, Preemergence
  Nutsedge plant response rating: 0
[15]; Rate 125 g/ha, Postemergence
  Nutsedge plant response rating: 0
[15]; Rate 125 g/ha, Preemergence
  Nutsedge plant response rating: 0
